Experimental data reported in US6001880A, “Alkylenediamine derivative, anti-ulcer drug, and antibacterial drug” (Shiseido Co., Ltd., priority 1997, dated 1999).

Tests used:
[1] = MTT: Cell Damaging and Protecting Effect Test; format: cell-based, rabbit (male Japanese White); conditions: rabbit, gastric corpus mucosa cells, final concentration 10^-4 M, smaller value is better, read-out: MTT: cell damaging rate
Source text: MTT: Cell Damaging and Protecting Effect Test
It is confirmed that there is no toxicity in cell level. Those having a toxicity in cell level are inappropriate as an anti-ulcer drug.
A male Japanese White rabbit (2.5 to 3 kg) was anesthetized to death by Nembutal™ and, immediately thereafter, its stomach was removed. The greater curvature of the stomach was incised so as to remove the stomach contents therefrom. After the mucosal surface was washed with HBSS (Hanks' Balanced Salt Solution), the stomach in ice-cooled HBSS was transferred to a laboratory. Then, after the pyloric antrum was removed, the gastric corpus mucosa was separated by a spatula and then minced into 2 to 3 mm^3 pieces in BME (Basal Medium Eagle). Thereafter, these pieces were shaken at 120 to 130 cycles/minute for 15 minutes at 37° C. in BME 60 ml containing 280 U/ml of dispase and 30 to 50 U/ml of collagenase. Here, the concentration of collagenase was appropriately changed for each lot in view of the state of cells. The pieces were washed twice with EBSS (Earle's Balanced Salt Solution) containing 1 mM of EDTA and then shaken in MEM (Minimum Essential Medium) containing 1 mM of EDTA at 37° C. for 5 minutes. Subsequently, they were shaken in the dispase and collagenase having the same concentrations as those mentioned above for 15 minutes so as to remove the supernatant and then further shaken at 37° C. for 50 to 60 minutes at 120 to 130 cycles/minute. Then, after being washed twice with HBSS, Ham F12 containing 2% of Ultrocer G™ was used to attain the concentration of 1×10^6 cells/ml. Thus formed suspension was dispensed in each well of a 96-well plate by 200 μl. The plate was incubated in the atmosphere composed of 5% CO2 and 95% air at 37° C. for three days so as to attain a confluent state and then subjected to MTT assay.
The sample compound was dissolved in DMSO so as to attain a concentration of 10^-2 M and then diluted with HBSS containing 2% of Ultrocer G™ so as to attain a final concentration of 10^-4 M. To each group, which 8 wells were used for, 10 μl of MTT reagent was added immediately after 100 μl of the medium in each well was exchanged for same volume of the resulting solution of the sample compound. After being incubated in an atmosphere composed of 5% CO2 and 95% air at 37° C. for 4 hours, thus formed solution was centrifuged and then its supernatant was discarded. Subsequently, 100 μl of 100% ethanol was added to the residue so as to dissolve MTT formazan. Then, the absorbance (OD: 570 to 630) was measured by a microplate reader. This method utilizes a phenomenon in which MTT is changed to MTT formazan only by mitochondria of living cells so as to change color.
The cell damaging or cell protecting effect of the sample compound at the final concentration of 10^-4 M was expressed as cell damaging rate (%) as follows:
cell damaging rate (%)=(1-(absorbance in sample group/absorbance in control
Accordingly, the smaller value is better in the cell damaging rate.

[2] = tested on: stress ulcer formation in rats; experiment: WIS: Restraint and Water Immersion Stress-Induced Ulcer Inhibition Test; format: in vivo, rat (male Crj:SD or Slc:SD); conditions: 100 mg/kg oral, 10 minutes before 7 h restraint and water immersion (21° C.)
Protocol: WIS: Restraint and Water Immersion Stress-Induced Ulcer Inhibition Test
The degree of inhibition of the stress ulcer formation is tested.
Male Crj:SD or Slc:SD rats (6 to 7-week-old) were fasted overnight, but allowed free access to water. Each group has 5 to 8 of these rats. The sample compound was dissolved or suspended in an aqueous solution of 0.3% sodium carboxymethylcellulose or 0.05% Tween 80 and then was orally administered (100 mg/10 ml/kg). To a control group, the vehicle was administered. 10 minutes later, the rats were placed in a stress cage and immersed to the level of xipfoid process in a water bath (21° C.) for 7 hours. At the end of the stress, the rats were sacrificed by inhalation of ether or carbon dioxide. Then, the stomach of each was removed, inflated by injecting 10 ml of 5% formalin neutral buffer solution, and immersed in 1% formalin neutral buffer solution for 30 minutes or more to be fixed. The stomach was incised along the greater curvature and then the length of each erosion in the glandular portion was determined under dissecting microscope. The sum of the length of erosions per stomach was defined as ulcer index (UI).
The effect obtained when 100 mg/kg of the sample compound had been administered was expressed as ulcer formation inhibitory rate (%) as follows:
ulcer formation inhibitory rate (%)=(1-(UI in sample group/UI in control

[3] = tested on: isolated gastric fundic gland; experiment: CAP: Acid Secretion Inhibition Test In Vitro ([14C]-aminopyrine uptake); format: cell-based, rabbit (male Japanese White); conditions: Oryctolagus cuniculus; final concentration 10^-5 M; histamine 10^-5 M stimulation; read-out: CAP: acid secretion inhibitory rate
Protocol: CAP: Acid Secretion Inhibition Test In Vitro
The acid secretion inhibitory activity in a cell level is studied. It can also be used for studying the mechanism of the effect.
First, an isolated gastric fundic gland sample was prepared. Namely, a male Japanese White rabbit (2.5 to 3 kg) was anesthetized to death with Nembutal™ and then the abdomen was incised. Immediately thereafter, the stomach was removed and, after its pyloric and cardiac antrum were severed, incised along its greater curvature into two sheets. The gastric contents adhering to the mucosal surface was washed out with ice-cooled PBS (-) and then carefully washed therein. The gastric wall was spread on a cork board with its mucosal surface facing up and the feed and mucus thereon were completely removed with sterile gauze. The mucosa was separated therefrom by a spatula and then collected in ice-cooled PBS (-). After being washed twice with PBS (-), the mucosa was minced into 2-3 mm^3 pieces by scissors. These pieces were further washed twice with a nutrient solution. The nutrient solution comprises 132.4 mM of NaCl, 5.4 mM of KCl, 5 mM of Na2 HPO4. 12H2 O, 1 mM of NaH2 PO4.2H2 O, 1.2 mM of MgSO4, 1 mM of CaCl2, 25 mM of HEPES, 2 mg/ml of glucose, and 1 mg/ml of BSA.
Into 70 ml of the nutrient solution containing 1 mg/ml of collagenase, minced mucosal pieces were dispersed and intensely stirred in a conical flask with a stirrer at 37° C. for 40 to 60 minutes. During this period, 100% O2 was sprayed on the nutrient solution surface and the pH was appropriately measured such that it was immediately adjusted to pH 7.4, when the value was therebelow, with a base. The nutrient solution was added to the reaction solution so as to attain the total amount of about 200 ml. After being filtered through a mesh, the suspension was divisionally introduced into 50 ml centrifuge tubes and left for 15 minutes such that gastric fundic gland was deposited. The supernatant was repeatedly removed by an aspirator, dispersed in the nutrient solution, and then left such that the gastric fundic gland was washed three times. At this time, without using a pipette, the suspension was alternately introduced into two centrifuge tubes so as to effect dispersion. The number of cells was counted under microscope and adjusted to 1.6×10^6 cells/ml.
Then, [^14 C]-aminopyrine uptake test was performed. After an Eppendorf tube was weighed, 10 μl (final concentration: 10^-5 M) of histamine dissolved in the above-mentioned nutrient solution, 10 μl (final concentration: […]) of the test compound dissolved in DMSO, and 10 μl (final concentration: 0.05 μCi/ml) of [^14 C]-aminopyrine diluted with the nutrient solution were introduced therein and then 970 μl of the isolated gastric fundic gland suspension prepared above was added thereto. Subsequently, this mixture was shaken at 37° C. for 40 minutes at 125 cycles/minute. After being centrifuged for 30 seconds, 200 μl of its supernatant was collected into a mini-vial, while the rest was removed by an aspirator. The gland pellet was completely dried as the tube with its lid being opened was kept for one night in a drying oven at 80° C. and then the lid was closed and the weight was determined at room temperature. Then 100 μl of 1N KOH was added thereto and the tube with its lid being closed was treated at 60° C. for 1 to 2 hours so as to dissolve the pellet. Then, the contents thereof were transferred to a mini-vial. Into the mini-vial containing the supernatant or gland pellet, 4 ml of Atomlite™ was added and then the radioactivity was measured by a liquid scintillation counter. Here, after the radioactivity of the gland pellet was corrected by using a sample in which 20 mM of NaSCN was added so as to cancel the hydrogen ion concentration gradient, the integration ratio of aminopyrine specifically trapped by the gland pellet was calculated. This experiment was performed in duplicate.
Here, its principle will be briefly explained. […]

## CC(C)Oc1ccc(C(=O)NCCN(C(C)C)C(C)C)cc1 [Example 59]
[1]
  cytotoxicity at 4 h, 100 µM: 39%
[2]
  WIS: ulcer formation inhibitory rate: 89%
[3]
  inhibition at 10 µM: 47.5%

## CCN(CC)CCNC(=O)c1ccc(OC/C=C(\C)CCC=C(C)C)nc1 [Example 50]
[1]
  cytotoxicity at 4 h, 100 µM: 4%
[2]
  WIS: ulcer formation inhibitory rate: 42%
[3]
  inhibition at 10 µM: 95.2%

## CC(C)N(CCNC(=O)c1cccc(CN2CCCCC2)c1)C(C)C [Example 66]
[1]
  cytotoxicity at 4 h, 100 µM: 12%
[2]
  WIS: ulcer formation inhibitory rate: 53%
[3]
  inhibition at 10 µM: 38.3%

## CC(C)=CCC/C(C)=C/CN(C/C=C(\C)CCC=C(C)C)c1ccc(C(=O)NCCN(C(C)C)C(C)C)cc1 [Example 27]
[1]
  cytotoxicity at 4 h, 100 µM: 39%
[2]
  WIS: ulcer formation inhibitory rate: 45%
[3]
  inhibition at 10 µM: 38.5%

## CCN(CC)CCNC(=O)c1ccccc1OC/C=C(\C)CCC=C(C)C [Example 2]
[1]
  cytotoxicity at 4 h, 100 µM: 28%
[2]
  WIS: ulcer formation inhibitory rate: 82%
[3]
  inhibition at 10 µM: 99.9%

## CCC(C)N(CCNC(=O)c1ccc(OC/C=C(\C)CCC=C(C)C)cc1)C(C)CC (centres unmarked) [Example 8]
[1]
  cytotoxicity at 4 h, 100 µM: 38%
[2]
  WIS: ulcer formation inhibitory rate: 58%
[3]
  inhibition at 10 µM: 99.9%

## CC(C)=CCC/C(C)=C/COc1ccc(C(=O)NCCN(C(C)C)C(C)C)cn1 [Example 51]
[1]
  cytotoxicity at 4 h, 100 µM: 15%
[2]
  WIS: ulcer formation inhibitory rate: 72%
[3]
  inhibition at 10 µM: 94.7%

## CCN(CC)CCNC(=O)c1ccc(OCC=C(C)C)cc1 [Example 3]
[1]
  cytotoxicity at 4 h, 100 µM: 1%
[2]
  WIS: ulcer formation inhibitory rate: 88%
[3]
  inhibition at 10 µM: 70.8%

## CCN(CC)CCNC(=O)c1cc(OC)ccc1OC/C=C(\C)CCC=C(C)C [Example 33]
[1]
  cytotoxicity at 4 h, 100 µM: 26%
[2]
  WIS: ulcer formation inhibitory rate: 67%
[3]
  inhibition at 10 µM: 100%

## CCN(CC)CCNC(=O)c1ccc(OC)c(OC/C=C(\C)CCC=C(C)C)c1 [Example 29]
[1]
  cytotoxicity at 4 h, 100 µM: 49%
[2]
  WIS: ulcer formation inhibitory rate: 81%
[3]
  inhibition at 10 µM: 100%

## CCN(CC)CCNC(=O)c1ccccc1SC/C=C(\C)CCC=C(C)C [Example 25]
[1]
  cytotoxicity at 4 h, 100 µM: 19%
[2]
  WIS: ulcer formation inhibitory rate: 82%
[3]
  inhibition at 10 µM: 96.1%

## CC(C)Cc1cc(C(=O)NCCN(C(C)C)C(C)C)ccc1OCc1ccc(F)cc1 [Example 57]
[1]
  cytotoxicity at 4 h, 100 µM: 43%
[2]
  WIS: ulcer formation inhibitory rate: 45%
[3]
  inhibition at 10 µM: 100%

## CCN(CC)CCNC(=O)c1ccc(OC)cc1OC/C=C(\C)CCC=C(C)C [Example 32]
[1]
  cytotoxicity at 4 h, 100 µM: 28%
[2]
  WIS: ulcer formation inhibitory rate: 73%
[3]
  inhibition at 10 µM: 100%

## CCN(CC)CCNC(=O)c1ccc(OC/C=C(/C)CCC=C(C)C)cc1 [Example 5]
[1]
  cytotoxicity at 4 h, 100 µM: 30%
[2]
  WIS: ulcer formation inhibitory rate: 90%
[3]
  inhibition at 10 µM: 109%

## CCN(CC)CCNC(=O)c1cc(OCC=C(C)C)ccc1OCC=C(C)C [Example 21]
[1]
  cytotoxicity at 4 h, 100 µM: 36%
[2]
  WIS: ulcer formation inhibitory rate: 77%
[3]
  inhibition at 10 µM: 100%

## CCN(CC)CCNC(=O)c1ccc(OCC=C(C)C)c(OCC=C(C)C)c1 [Example 22]
[1]
  cytotoxicity at 4 h, 100 µM: 16%
[2]
  WIS: ulcer formation inhibitory rate: 81%
[3]
  inhibition at 10 µM: 99.8%

## CCN(CC)CCNC(=O)c1cc(F)ccc1OC/C=C(\C)CCC=C(C)C [Example 35]
[1]
  cytotoxicity at 4 h, 100 µM: 25%
[2]
  WIS: ulcer formation inhibitory rate: 81%
[3]
  inhibition at 10 µM: 105%

## CCCCCc1ccc(C(=O)NCCN(C(C)C)C(C)C)cc1 [Example 62]
[1]
  cytotoxicity at 4 h, 100 µM: 40%
[2]
  WIS: ulcer formation inhibitory rate: 72%
[3]
  inhibition at 10 µM: 101%

## CC(C)c1ccc(C(=O)NCCN(C(C)C)C(C)C)cc1 [Example 64]
[1]
  cytotoxicity at 4 h, 100 µM: 39%
[2]
  WIS: ulcer formation inhibitory rate: 82%
[3]
  inhibition at 10 µM: 72.7%

## CCN(CC)CCNC(=O)c1ccc(OCC=C(C)C)cc1OCC=C(C)C [Example 20]
[1]
  cytotoxicity at 4 h, 100 µM: 28%
[2]
  WIS: ulcer formation inhibitory rate: 67%
[3]
  inhibition at 10 µM: 100%

## CCN(CC)CCNC(=O)c1cccc(OC)c1OC/C=C(\C)CCC=C(C)C [Example 31]
[1]
  cytotoxicity at 4 h, 100 µM: 17%
[2]
  WIS: ulcer formation inhibitory rate: 73%
[3]
  inhibition at 10 µM: 100%

## CCN(CC)CCNC(=O)c1ccc(CC(C)C)c(O)c1 [Example 56]
[1]
  cytotoxicity at 4 h, 100 µM: 11%
[2]
  WIS: ulcer formation inhibitory rate: 69%
[3]
  inhibition at 10 µM: 53.4%

## CC(C)N(CCNC(=O)c1ccc(NC(=O)C(C)(C)C)cc1)C(C)C [Example 69]
[1]
  cytotoxicity at 4 h, 100 µM: 35%
[2]
  WIS: ulcer formation inhibitory rate: 95%
[3]
  inhibition at 10 µM: 31.5%

## CC(C)=CCC/C(C)=C/COc1ccc(C(=O)NCCN(CC(C)C)CC(C)C)cc1 [Example 9]
[1]
  cytotoxicity at 4 h, 100 µM: 15%
[2]
  WIS: ulcer formation inhibitory rate: 40%
